Patent US8586747B2, “3,3-dimethyl tetrahydroquinoline derivatives” (Hoffmann-La Roche Inc., priority 2010, dated 2013)

System: AMP-activated protein kinase (AMPK)
Test: ADP Quest assay for AMPK activators
Type: biochemical
Parameters: key: fold AMPK activation with vs without activator at 30 µM
Details: fold of AMPK activation to phosphorylate SAMS peptide without and with an activator at the concentration of 30 µM
Procedure, shortened: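 AMPK phosphorylation of SAMS peptide with ATP monitored kinetically at room temperature by ADP Quest fluorescence (ex 530/em 590 nm), reaction started with enzyme. Compounds tested […] in 2-fold dilutions, AMP as reference. E30 is fold activation at 30 µM activator versus none.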

Row | E30 | Structure (SMILES)
1 | 1.46 | CC1(C)Cc2cc(C(=O)NS(=O)(=O)C3CC3)ccc2NC1c1cccc(N2CCNCC2)c1 (stereo not drawn) [Example 97, Cyclopropanesulfonic acid [3,3-dimethyl-2-(3-piperazin-1-yl-phenyl)-1,2,3,4-tetrahydro-quinoline-6-carbonyl]-amide]
2 | 1.44 | CCS(=O)(=O)NC(=O)c1ccc2c(c1)CC(C)(C)C(c1cccc(N3CCOCC3)c1)N2 (stereo not drawn) [Example 98, Ethanesulfonic acid [3,3-dimethyl-2-(3-morpholin-4-yl-phenyl)-1,2,3,4-tetrahydro-quinoline-6-carbonyl]-amide]
3 | 1.42 | CN1CCN(c2cccc(C3Nc4ccc(C(=O)O)cc4CC3(C)C)c2)CC1 (stereo not drawn) [Example 99, 3,3-Dimethyl-2-[3-(4-methyl-piperazin-1-yl)-phenyl]-1,2,3,4-tetrahydro-quinoline-6-carboxylic acid]
4 | 1.4 | CC1(C)Cc2cc(Cl)cc(C(=O)O)c2NC1c1cccc(N2CCOCC2)c1 (stereo not drawn) [Example 100, 6-Chloro-3,3-dimethyl-2-(3-morpholin-4-yl-phenyl)-1,2,3,4-tetrahydro-quinoline-8-carboxylic acid]
5 | 1.4 | CC1(C)Cc2cc(Cl)cc(C(=O)NS(=O)(=O)C3CC3)c2NC1c1cccc(N2CCOCC2)c1 (stereo not drawn) [Example 101, Cyclopropanesulfonic acid [6-chloro-3,3-dimethyl-2-(3-morpholin-4-yl-phenyl)-1,2,3,4-tetrahydro-quinoline-8-carbonyl]-amide]
6 | 1.4 | CC1(C)Cc2cc(C(=O)O)ccc2NC1c1cccc(N2CCNCC2)c1 (stereo not drawn) [Example 102, 3,3-Dimethyl-2-(3-piperazin-1-yl-phenyl)-1,2,3,4-tetrahydro-quinoline-6-carboxylic acid]
7 | 1.37 | CC1(C)Cc2cc(C(=O)NS(C)(=O)=O)ccc2NC1c1cccc(N2CCNCC2)c1 (stereo not drawn) [Example 103, N-[3,3-Dimethyl-2-(3-piperazin-1-yl-phenyl)-1,2,3,4-tetrahydro-quinoline-6-carbonyl]-methanesulfonamide]
8 | 1.35 | CC1CN(c2cccc(C3Nc4ccc(C(=O)NS(=O)(=O)C5CC5)cc4CC3(C)C)c2)CC(C)O1 (stereo not drawn) [Example 105, Cyclopropanesulfonic acid {2-[3-(2,6-dimethyl-morpholin-4-yl)-phenyl]-3,3-dimethyl-1,2,3,4-tetrahydro-quinoline-6-carbonyl}-amide]
9 | 1.3 | CC1CN(c2cccc(C3Nc4ccc(C(=O)O)cc4CC3(C)C)c2)CC(C)O1 (stereo not drawn) [Example 106, 2-[3-(2,6-Dimethyl-morpholin-4-yl)-phenyl]-3,3-dimethyl-1,2,3,4-tetrahydro-quinoline-6-carboxylic acid]
10 | 1.29 | COc1cccc(C2Nc3ccc(C(=O)N4CCC(C)(O)C4)cc3CC2(C)C)c1 (stereo not drawn) [Example 107, (3-Hydroxy-3-methyl-pyrrolidin-1-yl)-[2-(3-methoxy-phenyl)-3,3-dimethyl-1,2,3,4-tetrahydro-quinolin-6-yl]-methanone]
11 | 1.24 | CC1(C)Cc2cc(C(=O)O)ccc2NC1c1cccc(-c2ccc(Cl)cc2)c1 (stereo not drawn) [Example 109, 2-(4′-Chloro-biphenyl-3-yl)-3,3-dimethyl-1,2,3,4-tetrahydro-quinoline-6-carboxylic acid]
12 | 1.24 | CC1(C)Cc2cc(C(=O)NS(C)(=O)=O)ccc2NC1c1cccc(N2CCOC2=O)c1 (stereo not drawn) [Example 110, N-{3,3-Dimethyl-2-[3-(2-oxo-oxazolidin-3-yl)-phenyl]-1,2,3,4-tetrahydro-quinoline-6-carbonyl}-methanesulfonamide]
13 | 1.24 | CC1(C)Cc2c(C(=O)O)ccc(Cl)c2NC1c1cccc(N2CCOCC2)c1 (stereo not drawn) [Example 111, 8-Chloro-3,3-dimethyl-2-(3-morpholin-4-yl-phenyl)-1,2,3,4-tetrahydro-quinoline-5-carboxylic acid]
14 | 1.22 | CC1(C)Cc2cc(C(=O)O)cc(Cl)c2NC1c1cccc(N2CCOCC2)c1 (stereo not drawn) [Example 112, 8-Chloro-3,3-dimethyl-2-(3-morpholin-4-yl-phenyl)-1,2,3,4-tetrahydro-quinoline-6-carboxylic acid]
15 | 1.21 | CC1(C)Cc2cc(C(=O)O)ccc2NC1c1ccc(F)c(Cl)c1 (stereo not drawn) [Example 113, 2-(3-Chloro-4-fluoro-phenyl)-3,3-dimethyl-1,2,3,4-tetrahydro-quinoline-6-carboxylic acid]
16 | 1.21 | CC1(C)Cc2cc(C(=O)NS(=O)(=O)C3CC3)ccc2NC1c1cncc(N2CCOCC2)c1 (stereo not drawn) [Example 114, Cyclopropanesulfonic acid [3,3-dimethyl-2-(5-morpholin-4-yl-pyridin-3-yl)-1,2,3,4-tetrahydro-quinoline-6-carbonyl]-amide]

Row | E30 | Structure (SMILES)
17 | 1.2 | CC1(C)Cc2cc(C(=O)NS(C)(=O)=O)cc(Cl)c2NC1c1cccc(N2CCOCC2)c1 (stereo not drawn) [Example 115, N-[8-Chloro-3,3-dimethyl-2-(3-morpholin-4-yl-phenyl)-1,2,3,4-tetrahydro-quinoline-6-carbonyl]-methanesulfonamide]
18 | 1.2 | CC1(C)Cc2cc(C(=O)NS(=O)(=O)C3CC3)ccc2NC1c1cccc(N2CCOC2=O)c1 (stereo not drawn) [Example 116, Cyclopropanesulfonic acid {3,3-dimethyl-2-[3-(2-oxo-oxazolidin-3-yl)-phenyl]-1,2,3,4-tetrahydro-quinoline-6-carbonyl}-amide]
19 | 1.7 | CC1(C)Cc2c(ccc(F)c2C(=O)NS(=O)(=O)C2CC2)NC1c1cccc(N2CCOCC2)c1 (stereo not drawn) [Example 117, Cyclopropanesulfonic acid [6-fluoro-3,3-dimethyl-2-(3-morpholin-4-yl-phenyl)-1,2,3,4-tetrahydro-quinoline-5-carbonyl]-amide]
20 | 1.64 | CC1(C)Cc2c(ccc(F)c2C(=O)NS(C)(=O)=O)NC1c1cccc(N2CCOCC2)c1 (stereo not drawn) [Example 118, N-[6-Fluoro-3,3-dimethyl-2-(3-morpholin-4-yl-phenyl)-1,2,3,4-tetrahydro-quinoline-5-carbonyl]-methanesulfonamide]
21 | 1.5 | CNCCN(C)c1cccc(C2Nc3ccc(C(=O)O)cc3CC2(C)C)c1 (stereo not drawn) [Example 120, 3,3-Dimethyl-2-{3-[methyl-(2-methylamino-ethyl)-amino]-phenyl}-1,2,3,4-tetrahydro-quinoline-6-carboxylic acid]
22 | 1.42 | CC1(C)Cc2c(ccc(F)c2C(=O)O)NC1c1cccc(N2CCOCC2)c1 (stereo not drawn) [Example 121, 6-Fluoro-3,3-dimethyl-2-(3-morpholin-4-yl-phenyl)-1,2,3,4-tetrahydro-quinoline-5-carboxylic acid]
23 | 1.39 | CC(C)[C@H]1COC(=O)N1c1cccc(C2Nc3ccc(C(=O)O)cc3CC2(C)C)c1 (stereo partly drawn) [Example 122]
24 | 1.36 | CC(C)[C@@H]1COC(=O)N1c1cccc(C2Nc3ccc(C(=O)NS(C)(=O)=O)cc3CC2(C)C)c1 (stereo partly drawn) [Example 123, N-{2-[3-((R)-4-Isopropyl-2-oxo-oxazolidin-3-yl)-phenyl]-3,3-dimethyl-1,2,3,4-tetrahydro-quinoline-6-carbonyl}-methanesulfonamide]
25 | 1.33 | CC(C)[C@@H]1COC(=O)N1c1cccc(C2Nc3ccc(C(=O)NS(=O)(=O)C4CC4)cc3CC2(C)C)c1 (stereo partly drawn) [Example 125, Cyclopropanesulfonic acid {2-[3-((R)-4-isopropyl-2-oxo-oxazolidin-3-yl)-phenyl]-3,3-dimethyl-1,2,3,4-tetrahydro-quinoline-6-carbonyl}-amide]
26 | 1.28 | CN1CCN(c2cccc(C3Nc4ccc(C(=O)O)cc4CC3(C)C)c2)C(=O)C1=O (stereo not drawn) [Example 126, 3,3-Dimethyl-2-[3-(4-methyl-2,3-dioxo-piperazin-1-yl)-phenyl]-1,2,3,4-tetrahydro-quinoline-6-carboxylic acid]
27 | 1.26 | CC1(C)Cc2cc(C(=O)NS(C)(=O)=O)ccc2NC1c1cccc(N2C(=O)OC[C@H]2Cc2ccccc2)c1 (stereo partly drawn) [Example 128, N-{2-[3-((R)4-Benzyl-2-oxo-oxazolidin-3-yl)-phenyl]-3,3-dimethyl-1,2,3,4-tetrahydro-quinoline-6-carbonyl}-methanesulfonamide]
28 | 1.25 | CN1CCN(c2cccc(C3Nc4ccc(C(=O)NS(=O)(=O)C5CC5)cc4CC3(C)C)c2)C(=O)C1=O (stereo not drawn) [Example 129, Cyclopropanesulfonic acid {3,3-dimethyl-2-[3-(4-methyl-2,3-dioxo-piperazin-1-yl)-phenyl]-1,2,3,4-tetrahydro-quinoline-6-carbonyl}-amide]
29 | 1.25 | CC1(C)Cc2cc(C(=O)NS(=O)(=O)C3CC3)ccc2NC1c1cccc(N2C(=O)OC[C@H]2Cc2ccccc2)c1 (stereo partly drawn) [Example 130, Cyclopropanesulfonic acid {2-[3-((R)4-benzyl-2-oxo-oxazolidin-3-yl)-phenyl]-3,3-dimethyl-1,2,3,4-tetrahydro-quinoline-6-carbonyl}-amide]
30 | 1.24 | CN1CCN(c2cccc(C3Nc4ccc(C(=O)NS(C)(=O)=O)cc4CC3(C)C)c2)C(=O)C1=O (stereo not drawn) [Example 131, N-{3,3-Dimethyl-2-[3-(4-methyl-2,3-dioxo-piperazin-1-yl)-phenyl]-1,2,3,4-tetrahydro-quinoline-6-carbonyl}-methanesulfonamide]
31 | 1.23 | CC1(C)Cc2cc(C(=O)NS(=O)(=O)C3CC3)ccc2NC1c1cccc(N2C(=O)OC[C@@H]2Cc2ccccc2)c1 (stereo partly drawn) [Example 132, Cyclopropanesulfonic acid {2-[3-((S)-4-benzyl-2-oxo-oxazolidin-3-yl)-phenyl]-3,3-dimethyl-1,2,3,4-tetrahydro-quinoline-6-carbonyl}-amide]
32 | 1.2 | CC1(C)Cc2c(C(=O)NS(=O)(=O)C3CC3)ccc(Cl)c2NC1c1cccc(N2CCOCC2)c1 (stereo not drawn) [Example 133, Cyclopropanesulfonic acid [8-chloro-3,3-dimethyl-2-(3-morpholin-4-yl-phenyl)-1,2,3,4-tetrahydro-quinoline-5-carbonyl]-amide]

Row | Structure (SMILES) | E30
33 | CC1(C)Cc2cc(C(=O)O)ccc2NC1c1cccnc1 (stereo not drawn) [Example 108, 3,3-Dimethyl-2-pyridin-3-yl-1,2,3,4-tetrahydro-quinoline-6-carboxylic Acid] | 1.29
